The target in one data set is α-chymotrypsin (Bos taurus, UniProt P00766). On the procedure:
Solutions, concentrations, and reaction temperatures were selected according to manufacturer’s recommendations for total peptide digestion. A stock solution of 1 mM trypsin was prepared in 1 mM Tris HCl buffer solution containing 20 mM Ca^2+. […] Reaction was conducted at 37 °C for 6 h. Chymotrypsin was solubilized at 10 mg/mL in 1 mM HCl solution containing 2 mM CaCl2. […] Chymotrypsin reaction was conducted in 100 mM Tris HCl containing 10 mM CaCl2, pH 7.8 at 30 °C. […] At time 0, 3, and 6 h, 50 µL aliquots were removed for RP-HPLC analysis (see supplementary Materials, Section S3).

The next data set has as its target T1, trypsin (Bos taurus, UniProt P00760).
T1 sequence (P00760 24-246): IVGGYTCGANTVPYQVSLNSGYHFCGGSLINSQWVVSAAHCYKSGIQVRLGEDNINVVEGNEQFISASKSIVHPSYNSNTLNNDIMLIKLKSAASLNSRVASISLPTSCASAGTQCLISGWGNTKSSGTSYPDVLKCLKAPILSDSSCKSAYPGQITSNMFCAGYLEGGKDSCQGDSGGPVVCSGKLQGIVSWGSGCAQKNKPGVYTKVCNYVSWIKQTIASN
The experiment in a line: Stability to proteases: trypsin. On the procedure:
Solutions, concentrations, and reaction temperatures were selected according to manufacturer’s recommendations for total peptide digestion. A stock solution of 1 mM trypsin was prepared in 1 mM Tris HCl buffer solution containing 20 mM Ca^2+. […] […] Chymotrypsin was solubilized at 10 mg/mL in 1 mM HCl solution containing 2 mM CaCl2. […] Chymotrypsin reaction was conducted in 100 mM Tris HCl containing 10 mM CaCl2, pH 7.8 at 30 °C. […] At time 0, 3, and 6 h, 50 µL aliquots were removed for RP-HPLC analysis (see supplementary Materials, Section S3).

Data set [1] has as its system Staphylococcus pseudintermedius. Format: cell-based. The conditions noted are these: irrespective of the strain being MSSP or MRSP; Mueller-Hinton broth, 35 °C, 16–20 h. On the procedure:
Assays were performed by microbroth dilution of test compounds in Mueller-Hinton broth (MHB) in microtiter plates (Corning 96-well clear polypropylene round bottom plates, non-treated) according to the Clinical and Laboratory Standard Institute guidelines. The compounds were tested in concentrations ranging from 1 to 64 μg/mL (1, 2, 4, 8, 16, 32, 64 μg/mL). Briefly, bacteria were streaked on blood agar plates and incubated overnight at 37 °C. From these plates, colonies were suspended in saline solution and adjusted by nephelometer to obtain turbidity equivalent to a 0.5 McFarland standard. The suspension was diluted 1:100 in sterile 0.9% (w/v) saline, and 50 μL of this suspension was transferred to each well of the microtiter plate containing 50 μL of peptide solution in water, resulting in a concentration of 5 × 10^5 CFU/well. The microtiter plate was sealed and incubated at 35 °C for 16–20 h. Results were read by visual inspection.

Data set [2] can be described thus: in vitro. The conditions noted are these: dog. The format is cell-based. The source says:
B1 and D2 were designed on the basis that the majority of antimicrobial peptides are cationic and hydrophobic. We envisaged that short linear peptide-peptoid hybrids consisting of cationic lysines and hydrophobic peptoid residues would result in derivatives with potent antibacterial activity and low cytotoxicity. […] Repeated experiments on different days with different human blood samples confirmed the results.

The subject of the next data set is dog plasma proteins. The experiment in a line: Plasma protein binding, rapid equilibrium dialysis. The format is in vitro ADME. The note with it: Beagle, dog, 4 h, 30.8 µM, pH 7.4. On the procedure: (§1) The plasma protein binding properties of candidate drugs can influence their efficacy, safety, and distribution. The fraction of peptoid bound to proteins of plasma collected from dogs was determined using rapid equilibrium dialysis.
(§2) Plate inserts comprised two side-by-side chambers separated by a dialysis membrane (8K MWCO). The chambers contained […] plasma or 350 µL dialysis buffer (PBS buffer pH 7.4), respectively. Dogplasma lot was identical to the one used in the plasma stability assay. […] Plates were sealed and incubated at 37 °C for 4 h on a shaker. Each test was run in quadruplicate in dog plasma. Upon completion of the assay, the plasma protein binding was determined by protein precipitation with ACN of both plasma and PBS, and drug levels were quantified via LC-MS/MS as described above. The percentage of bound compounds was determined from peak areas using Equations (3) and (4):% free = (concentration buffer chamber/concentration plasma chamber) × 100%(3) % bound = 100% − % free(4)
For orientation: In equilibrium dialysis only unbound substance equilibrates across the membrane.

Data set [3] is described as follows: Plasma protein binding, rapid equilibrium dialysis. The note with it: Beagle, dog; for recovery at 4 h, 30.8 µM: pH 7.4, % Average Recovery; for fraction unbound at 4 h, 30.8 µM: plasma. The format is in vitro ADME, dog. On the procedure: as §1, §2
A short description of data set [4]: in vitro. The conditions noted are these: Beagle, dog. On the procedure: Plasma stability was determined by incubation of a known concentration of the peptoid/hybrid of interest with dog plasma up to 60 min at 37 °C and analyzing the concentration of the peptide in the supernatant by LC-MS/MS after protein precipitation. Results are presented as average of triplicates from a single donor.
Dog plasma was collected from a single Beagle dog at the research facilities of Zoetis Animal Health (Kalamazoo, MI, USA) and frozen immediately until use. […] Test compounds were added to plasma diluted 1:1 with PBS buffer pH 7.4 and preheated for 5 min at 37 °C. Samples were removed at 0, 5, 10, 20, 30, and 60 min. The reaction was stopped by protein precipitation by adding a 9:1 (v/v) ACN:MeOH mixture followed by centrifugation at 10,000 rpm for 5 min, and the remaining amount of intact test compounds in the supernatant was quantified via API Sciex 4000Q LC-MS/MS (Framingham, MA, USA) (coupled with an HPLC column to filter off the plasma proteins—see Supplementary Materials, Section S6) upon completion of the assay. Experiments were performed in quadruplicate.

The test system of another data set is pronase. Briefly: in vitro. The note with it: pronase from Streptomyces griseus, pH 8.
[5] abbreviates: pH 7.4, % Unbound (free fraction).

From PMC6017477, “In Vitro ADME Properties of Two Novel Antimicrobial Peptoid-Based Compounds as Potential Agents against Canine Pyoderma” (Molecules : A Journal of Synthetic Chemistry and Natural …, 2018) come the findings set out here.

SMILES strings stand for the structures. Non-standard residues stand in square brackets, D forms with d. Residues, ends and D or L forms follow the SMILES beside them. N(1-naphthylmethyl)Gly = O=C(O)CNCc1cccc2ccccc12; N(4-MeBn)Gly = Cc1ccc(CNCC(=O)O)cc1; NBuGly = CCCCNCC(=O)O; Nlys = NCCCCNCC(=O)O

The fraction unbound is the share of the substance not bound to proteins or other matrix. What is called half-life is the time in which the quantity being followed falls by half. In the case of `CCCCN(CC(=O)N[C@@H](CCCCN)C(=O)N(CC(=O)N(CC(=O)N(CC(N)=O)Cc1cccc2ccccc12)Cc1ccc(C)cc1)Cc1cccc2ccccc12)C(=O)[C@H](CCCCN)NC(=O)[C@@H](N)CCCCN` [Compound B1] (H-KK[NBuGly]K[N(1-naphthylmethyl)Gly][N(4-MeBn)Gly][N(1-naphthylmethyl)Gly]-NH2), at α-chymotrypsin, the “degradation after α-chymotrypsin exposure” value was “no degradation”. Besides, the metabolised at 24 h, 1 mg/mL on trypsin (isolated enzyme trypsin) stood at 6%. Further, the “Minimum inhibitory concentration (MIC)” value in data set [1] was in the range of 2 to 4 µg/mL. In “in vitro [2]”, this molecule gave a hemolysis at 150 µM of 45%. For the same molecule, the “% Average Recovery” value in the data set with dog plasma proteins is reported as 75.6%. Further, the recovery at 4 h, 30.8 µM in data set [3] is more than 70%. For the same molecule, the fraction unbound at 4 h, 30.8 µM in data set [3] (setting [5]) was determined as 0.0016. Moreover, the half-life in the data set “in vitro [4]” (dog plasma diluted 1:1 with PBS, pH 7.4, Half-life in plasma (dog), dog plasma, 37 °C, incubation up to 60 min, LC-MS/MS) was approximately 30 min; in the data set “in vitro [4]” (dog plasma diluted 1:1 with PBS, pH 7.4, stability to plasma proteases (half-life), in hours), 30 min. In the data set on pronase, this molecule returned a metabolised at 24 h, 0.2 µM of 38%.
Regarding `CCCCN(CC(N)=O)C(=O)CN(CCCCN)C(=O)CN(Cc1cccc2ccccc12)C(=O)CN(CCCCN)C(=O)CN(Cc1ccc(C)cc1)C(=O)CN(Cc1cccc2ccccc12)C(=O)CN(CCCCN)C(=O)CNCCCCN` [Compound D2] (H-[Nlys][Nlys][N(1-naphthylmethyl)Gly][N(4-MeBn)Gly][Nlys][N(1-naphthylmethyl)Gly][Nlys][NBuGly]-NH2), the “degradation after α-chymotrypsin exposure” value on α-chymotrypsin was “no degradation”. For the same molecule, the “degradation after 24 h of incubation with trypsin” value on trypsin is “no degradation”. Also, the “Minimum inhibitory concentration (MIC)” value in data set [1] was 2 to 4 µg/mL. Also, in the data set “in vitro [2]”, the hemolysis at 150 µM came out at 22%. Moreover, in the data set on dog plasma proteins, the “% Average Recovery” value is given as 70.8%. Further, the “Bound to plasma proteins” value in the data set with dog plasma proteins (plasma) is listed as 98.6%. The recovery at 4 h, 30.8 µM in data set [3] is more than 70%. In addition, the fraction unbound at 4 h, 30.8 µM in data set [3] (setting [5]) is 0.0143; in data set [3] (pH 7.4, Bound to plasma proteins) it was less than 0.02. The same molecule registered a half-life in the data set “in vitro [4]” (plasma, pH 7.4, Half-life in plasma (dog), dog plasma, 37 °C, incubation up to 60 min, LC-MS/MS) of more than 120 min. In the data set on pronase, this molecule displayed a metabolised at 24 h, 0.2 µM of 0.2%.
